{"source": "paper PMC8234273", "about": "“A Sesquiterpene Synthase from the Endophytic Fungus Serendipita indica Catalyzes Formation of Viridiflorol” (Biomolecules, 2021)", "target": "T1, SiTPS (Serendipita indica, UniProt G4TNA6)", "T1 construct": "gene PIIN_06735; full coding region from S. indica cDNA, C-terminal His-tag (pET28b+), E. coli C41, His SpinTrap purified and desalted", "T1 sequence (G4TNA6 1-515)": "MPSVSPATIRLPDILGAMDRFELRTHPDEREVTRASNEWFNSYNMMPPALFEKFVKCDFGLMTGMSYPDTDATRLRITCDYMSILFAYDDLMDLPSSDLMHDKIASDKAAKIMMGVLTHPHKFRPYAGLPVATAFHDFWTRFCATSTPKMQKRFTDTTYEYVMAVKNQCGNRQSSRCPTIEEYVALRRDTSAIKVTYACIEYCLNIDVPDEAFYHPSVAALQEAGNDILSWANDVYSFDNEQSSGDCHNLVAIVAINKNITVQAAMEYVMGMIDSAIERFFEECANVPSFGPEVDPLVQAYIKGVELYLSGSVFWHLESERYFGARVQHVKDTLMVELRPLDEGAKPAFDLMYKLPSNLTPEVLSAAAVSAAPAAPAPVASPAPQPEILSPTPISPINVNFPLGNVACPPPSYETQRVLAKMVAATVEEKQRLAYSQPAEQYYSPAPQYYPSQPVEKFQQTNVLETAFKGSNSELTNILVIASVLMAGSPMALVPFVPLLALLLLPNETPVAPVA", "assay": "in vitro terpene synthase assay, GC-MS of hexane extract", "type": "biochemical", "conditions": "10 mM MgCl2, 100 mM KCl, 5 mM DTT, 10% glycerol, 50 mM HEPES pH 7.2, 30 °C, 1 h", "data": [{"smiles": "CC(C)=CCC/C(C)=C/CC/C(C)=C/COP(=O)(O)OP(=O)(O)O", "note": "[E,E-FPP]", "values": [{"measurement": "in vitro terpene synthase assay, GC-MS of hexane extract", "result": "Hexane extracts showed activity only when SiTPS was incubated with E,E-FPP"}]}]}
